From patent US20250230147A1, “LACTAMS AS CBL-B INHIBITORS” (Genentech, Inc., priority 2021, published 2025) come the findings set out here.

The structures appear in SMILES notation.

The target of data set [1] is Cbl-b (Homo sapiens (Human), UniProt Q13191). Briefly: Cbl-b LCK Ub TR-FRET assay (Cbl-b Lck HTRF). Format: biochemical. The method in brief: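 TR-FRET (340 nm excitation, 615/665 nm emission) read after adding HA-ubiquitin–UBE2D2 thioester, anti-HA-D2 and streptavidin-Eu. Beforehand, compounds incubated 60 min with biotinylated Cbl-b, then 90 min with His-LCK and ATP (1 mM in 2× mix); IC50 from 10 concentrations, DMSO high and no-LCK low controls.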
Chain of Cbl-b (Q13191 40-426): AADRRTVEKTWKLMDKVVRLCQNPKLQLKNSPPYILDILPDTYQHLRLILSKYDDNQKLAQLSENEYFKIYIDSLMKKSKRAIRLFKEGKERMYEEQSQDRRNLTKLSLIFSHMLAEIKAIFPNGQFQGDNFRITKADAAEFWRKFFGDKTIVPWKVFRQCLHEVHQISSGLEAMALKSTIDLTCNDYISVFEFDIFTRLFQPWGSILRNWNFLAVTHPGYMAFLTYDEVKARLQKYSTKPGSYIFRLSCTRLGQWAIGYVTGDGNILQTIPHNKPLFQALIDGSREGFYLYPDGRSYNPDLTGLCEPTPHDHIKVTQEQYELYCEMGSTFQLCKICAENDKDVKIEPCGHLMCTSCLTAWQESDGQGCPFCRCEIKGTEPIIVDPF

In data set [2] the target is c-Cbl (Homo sapiens (Human), UniProt P22681). Briefly: C-Cbl LCK Ub TR-FRET assay (c-cbl Lck HTRF). The data set is classed as biochemical. The following applies: for (fold-selectivity): C-cbl Lck HTRF IC50 relative to Cbl-b Lck HTRF IC50. In a few lines: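 Signal is read once the detection mix has stood 20 min at ambient temperature. Curves are anchored by DMSO as maximum and by omission of LCK as minimum.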
Chain of c-Cbl (P22681 47-435): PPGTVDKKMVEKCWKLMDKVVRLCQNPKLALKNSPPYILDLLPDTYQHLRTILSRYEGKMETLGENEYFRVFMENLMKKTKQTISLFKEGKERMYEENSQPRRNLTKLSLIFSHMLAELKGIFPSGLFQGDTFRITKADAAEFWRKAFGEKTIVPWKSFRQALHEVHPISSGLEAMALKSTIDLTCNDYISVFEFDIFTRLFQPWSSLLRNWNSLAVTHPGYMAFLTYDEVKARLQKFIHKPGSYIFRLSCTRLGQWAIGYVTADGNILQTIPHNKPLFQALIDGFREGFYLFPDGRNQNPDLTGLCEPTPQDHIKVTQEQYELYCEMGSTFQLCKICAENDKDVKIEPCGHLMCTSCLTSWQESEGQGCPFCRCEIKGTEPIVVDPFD
Background: TR-FRET usually uses a lanthanide donor and a delayed reading to cut background.

Data set [3] can be described thus: In vivo pharmacokinetics, mouse. The settings on record: male, CD-1, plasma; for bioavailability: PO 1-5 mg/kg, read-out: Oral Bioavailability (F %); for clearance: single intravenous bolus 0.2-1 mg/kg, read-out: Mouse CL. Also on record: species or system CD-1 mice. How it is done: The pharmacokinetics of test compounds were evaluated following a single intravenous bolus (IV) of solution at a dose of 0.2-1 mg/kg and oral administration (PO) of solution/suspension at doses of 1-5 mg/kg in male cynomolgus monkey, beagle dogs, Sprague Dawley rats, or CD-1 mice using a parallel study design. Blood samples for the IV dose group were collected prior to administration (predose) and at 0.033, 0.083, 0.25, 0.5, 1, 3, 6, 9 and 24 hours post dose. Blood samples for PO dose groups were collected prior to administration (predose) and at 0.083, 0.25, 0.5, 1, 3, 6, 9 and 24 hours post dose. For the IV group, urine was collected from each animal at predose and from 0-6 and 6-24 hours post dose. The vehicle used for IV dose groups was a combination of PEG400 with citrate buffer (pH 5.0) or PEG400/Cremphor with DMSO/H2O, and for PO groups was MCT.
Plasma and urine concentrations were quantitated at Genentech Inc. using a non-validated LC/MS/MS method. The lower limit of quantitation (LLOQ) of the plasma and urine assays was 0.005 μM. PK parameters were determined by non-compartmental methods using WinNonlin (version 5.2, Pharsight Corporation, Mountain View, CA).

The nature of data set [4]: Liver microsomes metabolic stability, rat. The settings on record: 1 μM compound, 0.5 mg/mL microsomal protein. The data set is classed as in vitro ADME. How it is done: (§1) Metabolic stability of test compounds was evaluated in pooled rat, mouse, dog, and cynomolgus monkey liver microsomes (BD Biosciences, San Jose, CA). The incubation conditions were as follows: 1 μM of the tested compound, 1 mM NADPH, 0.5 mg/mL microsomal protein in 0.1 M potassium phosphate buffer (pH 7.4). Following a 5-minute pre-incubation period, the enzymatic reactions were initiated by the addition of NADPH and test compound to the microsomes diluted in phosphate buffered saline. The mixtures were incubated at 37° C. for 0, 20, 40, and 60 min.
(§2) Compound concentrations were assessed by LC-MS/MS. Intrinsic clearance based upon microsomal stability data was determined using a substrate depletion method and scaled to hepatic clearance using the well-stirred model (Obach, R. S.; Baxter, J. G.; Liston, T. E.; Silber, B. M.; Jones, B. C.; Macintyre, F.; Rance, D. J.; Wastall, P., “The Prediction of Human Pharmacokinetic Parameters from Preclinical and in vitro Metabolism Data”, J. Pharmacol. Exp. Ther., (1997), 283 (1), 46-58).
In general terms: Microsomes from liver hold many membrane-bound enzymes, among them those of drug oxidation.

Data set [5] is described as follows: Liver microsomes metabolic stability, mouse. The settings on record: 1 μM compound, 0.5 mg/mL microsomal protein. Format: in vitro ADME. Here is the method: as §1, §2
The nature of data set [6]: Liver microsomes metabolic stability, dog. Format: in vitro ADME. The settings on record: 1 μM compound, 0.5 mg/mL microsomal protein. Here is the method: as §1, §2
Data set [7] concerns rat hepatocytes. Briefly: Hepatocyte metabolic stability, rat. Format: in vitro ADME. The settings on record: 1.0 μM compound, 0.5 million cells/mL. How it is done:
(§3) Metabolic stability assays of test compounds were evaluated in cryopreserved pooled rat, mouse, dog, and cynomolgus monkey hepatocytes (CellzDirect; Durham, NC, USA). Membrane integrity of the cells was assessed by trypan blue exclusion. Test compounds (1.0 μM with 0.1% dimethylsulfoxide) were incubated with cells (0.5 million cells/mL) at 37° C. in a 95% air/5% CO2 atmosphere for 0, 20, 40, or 60 minutes. Concentrations of test compounds in hepatocyte incubations were determined by LC/MS/MS. Intrinsic clearance was determined using a substrate depletion method and scaled to hepatic clearance using the well-stirred model as described above for the liver microsomes metabolic stability assays.

For data set [8], the system named is mouse hepatocytes. Briefly: Hepatocyte metabolic stability, mouse. The following applies: 1.0 μM compound, 0.5 million cells/mL. The data set is classed as in vitro ADME. How it is done: as §3

Take `Cn1cnnc1[C@H](F)C1(c2cccc(N3Cc4c(cc(CN5CCC5)cc4C(F)(F)F)C3=O)c2)COC1` [Compound 70, (R)-6-(azetidin-1-ylmethyl)-2-(3-(3-(fluoro(4-methyl-4H-1,2,4-triazol-3-yl)methyl)oxetan-3-yl)phenyl)-4-(trifluoromethyl)isoindolin-1-one]: the IC50 in data set [1] came to 0.11 µM. In data set [2], the IC50 came out at 0.21 µM and the “(fold-selectivity)” value is given as 1.9x. Besides, in data set [3], the bioavailability worked out at 2% and the clearance came out at 44 mL/min/kg.

Consider `CC(C)[C@H]1CN(C)CCN1Cc1cc2c(c(C(F)(F)F)c1)CN(c1cccc(C3([C@@H](F)c4nncn4C)CC(F)(F)C3)c1)C2=O` [Compound 189, 2-(3-(3,3-difluoro-1-((R)-fluoro(4-methyl-4H-1,2,4-triazol-3-yl)methyl)cyclobutyl)phenyl)-6-(((S)-2-isopropyl-4-methylpiperazin-1-yl)methyl)-4-(trifluoromethyl)isoindolin-1-one], for which the IC50 in data set [1] stood at 0.012 µM. In data set [2], half-maximal inhibition (IC50) required 0.011 µM and the “(fold-selectivity)” value is listed as 0.95x. In data set [3], the bioavailability was 21% and the clearance was found to be 34 mL/min/kg.

As to `Cn1cnnc1[C@H](F)C1(c2cccc(N3Cc4c(cc(CN)cc4C(F)(F)F)C3=O)c2)COC1` [Compound 68, (R)-6-(aminomethyl)-2-(3-(3-(fluoro(4-methyl-4H-1,2,4-triazol-3-yl)methyl)oxetan-3-yl)phenyl)-4-(trifluoromethyl)isoindolin-1-one], the IC50 in data set [1] turned out to be 0.079 µM; in data set [2], 0.11 µM. For the same molecule, the “(fold-selectivity)” value in data set [2] stood at 1.3x. For the same molecule, the “Liver microsomes Pred. CLhep (mL/min/kg) Rat/Mouse/Dog” value in data set [4] is 6 mL/min/kg; in data set [5] it was 14 mL/min/kg; in data set [6], 12 mL/min/kg. For the same molecule, the “Hepatocyte Pred. CLhep (mL/min/kg) Rat/Mouse/Dog” value is 19 mL/min/kg in data set [7] and 37 mL/min/kg in data set [8].

For the molecule `Cn1cnnc1[C@H](F)C1(c2cccc(N3Cc4c(cc(CN5CC(C)(CO)C5)cc4C(F)(F)F)C3=O)c2)COC1` [Compound 74, (R)-2-(3-(3-(fluoro(4-methyl-4H-1,2,4-triazol-3-yl)methyl)oxetan-3-yl)phenyl)-6((3-(hydroxymethyl)-3-methylazetidin-1-yl)methyl)-4-(trifluoromethyl)isoindolin-1-one], the values for the IC50 in data set [1] and in data set [2] were 0.057 µM and 0.12 µM, respectively. Moreover, in data set [2], the “(fold-selectivity)” value was found to be 2.2x. Also, the entries for the “Liver microsomes Pred. CLhep (mL/min/kg) Rat/Mouse/Dog” value in data set [4], in data set [5] and in data set [6] were 15 mL/min/kg, 37 mL/min/kg and 19 mL/min/kg, respectively. For the same molecule, the entries for the “Hepatocyte Pred. CLhep (mL/min/kg) Rat/Mouse/Dog” value in data set [7] and in data set [8] were 11 mL/min/kg and 35 mL/min/kg, respectively.

In the case of `Cn1cnnc1[C@H](F)C1(c2cccc(N3Cc4c(cc(CN5CC6CC5C6)cc4C(F)(F)F)C3=O)c2)COC1` [Compound 86, (R)-6-((2-azabicyclo[2.1.1]hexan-2-yl)methyl)-2-(3-(3-(fluoro(4-methyl-4H-1,2,4-triazol-3-yl)methyl)oxetan-3-yl)phenyl)-4-(trifluoromethyl)isoindolin-1-one], the IC50 in data set [1] was 0.13 µM; in data set [2], 0.27 µM. In data set [2], the “(fold-selectivity)” value is reported as 2.1x. Moreover, the “Liver microsomes Pred. CLhep (mL/min/kg) Rat/Mouse/Dog” value in data set [4] was 7 mL/min/kg; in data set [5], 27 mL/min/kg; in data set [6], 14 mL/min/kg. Also, the “Hepatocyte Pred. CLhep (mL/min/kg) Rat/Mouse/Dog” value was 12 mL/min/kg in data set [7] and 36 mL/min/kg in data set [8]. In data set [3], the bioavailability was found to be 2%. In addition, in data set [3], the clearance was determined as 40 mL/min/kg.

In data set [1], `CC(C)[C@H]1CN(C)CCN1Cc1cc2c(c(C(F)(F)F)c1)CN(c1cccc(C3([C@@H](F)c4nncn4C)COC3)c1)C2=O` [Compound 187, 2-(3-(3-((R)-fluoro(4-methyl-4H-1,2,4-triazol-3-yl)methyl)oxetan-3-yl)phenyl)-6-(((S)-2-isopropyl-4-methylpiperazin-1-yl)methyl)-4-(trifluoromethyl)isoindolin-1-one] displayed an IC50 of 0.011 µM. In data set [2], the IC50 was determined as 0.013 µM and the “(fold-selectivity)” value turned out to be 1.1x. Also, in data set [3], the bioavailability was 13% and the clearance came out at 42 mL/min/kg.

Regarding `CC(C)Nc1cc(C2(Cc3nncn3C)CCC2)cc(N2Cc3c(cc(CN4CCN(C)C[C@@H]4C(C)C)cc3C(F)(F)F)C2=O)n1` [Compound 409, (S)-6-((2-isopropyl-4-methylpiperazin-1-yl)methyl)-2-(6-(isopropylamino)-4-(1-((4-methyl-4H-1,2,4-triazol-3-yl)methyl)cyclobutyl)pyridin-2-yl)-4-(trifluoromethyl)isoindolin-1-one], in data set [1], 0.012 µM corresponded to half-maximal inhibition (IC50). Besides, in data set [2], half-maximal inhibition (IC50) required 0.0059 µM and the “(fold-selectivity)” value is recorded as “(0.48x)”.

For the molecule `Cn1cnnc1[C@H](F)C1(c2cccc(N3Cc4c(cc(CN5CC(O)(C6CC6)C5)cc4C(F)(F)F)C3=O)c2)COC1` [Compound 173, (R)-6-((3-cyclopropyl-3-hydroxyazetidin-1-yl)methyl)-2-(3-(3-(fluoro(4-methyl-4H-1,2,4-triazol-3-yl)methyl)oxetan-3-yl)phenyl)-4-(trifluoromethyl)isoindolin-1-one], in data set [1], the IC50 amounted to 0.063 µM. In addition, in data set [2], half-maximal inhibition (IC50) required 0.083 µM and the “(fold-selectivity)” value is on record as 1.3x.

`Cn1cnnc1CC1(c2cccc(N3Cc4c(cc(CNC5(C)CCC5)cc4C(F)(F)F)C3=O)c2)CS(=O)(=O)C1` [Compound 242, 2-(3-(3-((4-methyl-4H-1,2,4-triazol-3-yl)methyl)-1,1-dioxido-thietan-3-yl)phenyl)-6-(((1-methylcyclobutyl)amino)methyl)-4-(trifluoromethyl)isoindolin-1-one]: the IC50 in data set [1] worked out at 0.031 µM. Moreover, in data set [2], the IC50 is 0.041 µM and the “(fold-selectivity)” value is “(1.3x)”.

For the molecule `CC(C)[C@H]1CN(Cc2cc3c(c(C(F)(F)F)c2)CN(c2cccc(C4(Cc5nncn5C)CC(F)(F)C4)c2)C3=O)CCN1` [Compound 429, (S)-2-(3-(3,3-difluoro-1-((4-methyl-4H-1,2,4-triazol-3-yl)methyl)cyclobutyl)phenyl)-6-((3-isopropylpiperazin-1-yl)methyl)-4-(trifluoromethyl)isoindolin-1-one], half-maximal inhibition in data set [1] (IC50) required 0.026 µM. Further, in data set [2], the IC50 was 0.02 µM and the “(fold-selectivity)” value was “(0.76x)”.

A word on the IC50: it is the concentration at which inhibition is half-maximal. A low value points to higher potency. By bioavailability is commonly meant dose-corrected exposure relative to a reference, in per cent.
